Laboratory results published in patent US20080312220A1, “Oxadiazole Derivatives with Crth2 Receptor Activity” (priority 2005, published 2008).
pIC50: −log10 of the molar value.

Columns and labels:
human CRTH2-Rluc = target: T1, human CRTH2-Rluc (Homo sapiens, UniProt Q9Y5Y4); assay: Functional antagonist BRET assay (CRTH2-Rluc / GFP2-β-arrestin2 in HEK293 cells); assay type: cell-based; conditions: HEK293 cells stably expressing CRTH2-Rluc and GFP2-β-arr2, read-out: Antag. IC50
T1 construct: expressed in transfected cells; host or cells: HEK293 cell clone stably expressing βarr2-GFP2 and CRTH2-Rluc
T1 sequence (Q9Y5Y4 1-395): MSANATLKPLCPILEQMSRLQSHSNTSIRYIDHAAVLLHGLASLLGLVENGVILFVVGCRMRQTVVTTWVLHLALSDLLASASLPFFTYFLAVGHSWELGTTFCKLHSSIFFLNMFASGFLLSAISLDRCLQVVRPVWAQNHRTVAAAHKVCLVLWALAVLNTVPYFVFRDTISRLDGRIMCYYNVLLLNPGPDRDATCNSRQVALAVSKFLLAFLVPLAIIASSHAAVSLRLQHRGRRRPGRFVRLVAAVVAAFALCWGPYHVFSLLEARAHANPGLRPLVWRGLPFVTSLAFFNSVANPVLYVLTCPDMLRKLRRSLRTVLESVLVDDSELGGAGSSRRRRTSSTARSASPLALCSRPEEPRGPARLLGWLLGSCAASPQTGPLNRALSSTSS
Text: (§1) Generation/origin of the cDNA Constructs. The coding sequence of the human CRTH2 receptor (genbank accession no NM_004778) was amplified by PCR from a human hippocampus cDNA library and inserted into the pcDNA3.1(+) expression vector (invitrogen) via 5′ HindIII and 3′ EcoRI. To generate a CRTH2-Renilla luciferase (CRTH2-Rluc) fusion protein, the CRTH2 coding sequence without a STOP codon and Rluc were amplified, fused in frame by PCR and subcloned into the pcDNA3.1(+)Zeo expression vector (invitrogen). Human β-arrestin2 (β-arr2) N-terminally tagged with GFP^2 (βarr2-GFP^2) and Renilla luciferase were purchased from BioSignal Packard Inc, (Montreal, Canada). The sequence identity of the construct was verified by restriction endonuclease digests and sequencing in both directions on an ABI Prism (Applied Biosystems, Foster City, Calif.).
(§2) Cell Culture and Transfection. COS-7 cells were grown in Dulbecco's modified Eagle's medium (DMEM) 1885 supplemented with 10% fetal bovine serum, 100 units/ml penicillin, […], and kept at 37° C. in a 10% CO2 atmosphere. HEK293 cells were maintained in Minimum Essential medium (MEM) supplemented with 10% (v/v) heat inactivated fetal calf serum (HIFCS), 2 mM Glutamax™-I, 1% non essential amino acids (NEAA), 1% sodium pyruvate and 10 μg/ml gentamicin. For binding experiments, COS7 cells were transiently transfected with the CRTH2 receptor using a calcium phosphate-DNAcoprecipitation method with the addition of chloroquine (as described by Holst et al., 2001↓). To perform the functional Bioluminescence Resonance Energy Transfer (BRET) assays, a HEK293 cell clone stably expressing Parr2-GFP^2 and CRTH2-Rluc was generated (CRTH2-HEK293 cells).
BRET assay. Functional BRET assays were performed on HEK293 cells stably expressing human CRTH2-Rluc and GFP^2-β-arr2. Prior to their use in the BRET assay cells were detached and re-suspended in D-PBS with 1000 mg/L L-Glucose at a density of 2×10^6 cells/mL. DeepBlueC™ was diluted to 50 μM in D-PBS with 1000 mg/L L-Glucose (light sensitive). 100 μL of cell suspension was transferred to wells in a 96-well microplate (white OptiPlate) and placed in the Mithras LB 940 instrument (BERTHOLD TECHNOLOGIES, Bad Wildbad, Germany). 12 μL/well agonist was then injected by injector 1 and 10 μL/well DeepBlueC™ was injected simultaneously by injector 2. Five seconds after the injections the light output from the well was measured sequentially at 400 nm and 515 nm, and the BRET signal (mBRET ratio) was calculated by the ratio of the fluorescence emitted by GFP^2-β-arr2 (515 nm) over the light emitted by the receptor-Rluc (400 nm). Antagonists were added before placing the microplates into the Mithras LB 940 and allowed to incubate for 15 minutes prior to the addition of agonist and DeepBlueC™. Compounds were dissolved in DMSO and the final DMSO concentration was kept constant at 1% in the assay.
(§3) Curve analysis was performed with the GraphPadPrism software 3.0 (Graphpad Prism Inc., San Diego, USA) and IC50 values were calculated as a measure of the antagonistic potencies.

human CRTH2 receptor = target: T2, human CRTH2 receptor (Homo sapiens, UniProt Q9Y5Y4); assay: Receptor binding assay, competition with [3H]PGD2 on whole transfected cells; conditions: competition with 0.1 nM [3H]PGD2, whole cells expressing CRTH2
T2 construct: expressed in transfected cells; host or cells: COS-7 cells, transient transfection (calcium phosphate)
T2 sequence (Q9Y5Y4 1-395): T1 sequence (Q9Y5Y4 1-395)
Text: as §1, §2
Binding assay. 24 h after transfection COS-7 cells were seeded into 96 well plates at a density of 30.000 cells/well. Competition binding experiments on whole cells were then performed about 18-24 h later using 0.1 nM [^3H]PGD2 (NEN, 172 Ci/mmol) in a binding buffer consisting of HBSS (GIBCO) and 10 mM HEPES. Competing ligands were diluted in DMSO which was kept constant at 1% (v/v) of the final incubation volume. Total and nonspecific binding were determined in the absence and presence of 10 μM PGD2. Binding reactions were routinely conducted for 3 h at 4° C. and terminated by 2 washes (100 μl each) with ice cold binding buffer. Radioactivity was determined by liquid scintillation counting in a TOPCOUNTER (Packard) following over night incubation in Microscint 20. Stable HEK293 cells were seeded at a density of 30.000 cells/well 18-24 h prior to the binding assay which was performed essentially as described for COS7 cells above. Determinations were made in duplicates.
as §3

Compound	pIC50 (human CRTH2-Rluc)	pIC50 (human CRTH2 receptor)
O=C(O)COc1ccc(Br)cc1-c1nc(C2(c3ccccc3)CC2)no1 [Example D1, {4-Bromo-2-[3-(1-phenylcyclopropyl)-[1,2,4]oxadiazol-5-yl]phenoxy}acetic acid]	> 6.30	> 6.30
CC(=O)N1CCC(c2ccccc2)(c2noc(-c3cc(Br)ccc3OCC(=O)O)n2)CC1 [Example D2, {2-[3-(1-Acetyl-4-phenyl-piperidin-4-yl)-[1,2,4]oxadiazol-5-yl]-4-bromo-phenoxy}-acetic acid]	> 6.30	> 6.30
O=C(O)COc1ccc(Br)cc1-c1nc(C2(c3ccccc3)CCCCC2)no1 [Example D3, {4-Bromo-2-[3-(1-phenyl-cyclohexyl)-[1,2,4]oxadiazol-5-yl]-phenoxy}-acetic acid]	> 6.30	> 6.30
O=C(O)COc1ccc(Br)cc1-c1nc(C(c2ccccc2)N2CCOCC2)no1 (stereo not drawn) [Example D4]	> 6.30	> 6.30
O=C(O)COc1ccc(Br)cc1-c1nc(C2(c3ccccc3)CCNCC2)no1 [Example D5, {4-Bromo-2-[3-(4-phenyl-piperidin-4-yl)-[1,2,4]oxadiazol-5-yl]-phenoxy}-acetic acid]	5.30 to 6.30	> 6.30
O=C(O)COc1ccc(Br)cc1-c1nc(C2(c3ccc(F)cc3)CC2)no1 [Example D6, (4-Bromo-2-{3-[1-(4-fluoro-phenyl)-cyclopropyl]-[1,2,4]oxadiazol-5-yl}-phenoxy)-acetic acid]	> 6.30	> 6.30
CCC(=O)N1CCC(c2ccccc2)(c2noc(-c3cc(Br)ccc3OCC(=O)O)n2)CC1 [Example D7, {4-Bromo-2-[3-(4-phenyl-1-propionyl-piperidin-4-yl)-[1,2,4]oxadiazol-5-yl]-phenoxy}-acetic acid]	> 6.30	> 6.30
CC(C)C(=O)N1CCC(c2ccccc2)(c2noc(-c3cc(Br)ccc3OCC(=O)O)n2)CC1 [Example D8, {4-Bromo-2-[3-(1-isobutyryl-4-phenyl-piperidin-4-yl)-[1,2,4]oxadiazol-5-yl]-phenoxy}-acetic acid]	> 6.30	> 6.30
O=C(O)COc1ccc(Br)cc1-c1nc(C2(c3ccc(Cl)cc3Cl)CC2)no1 [Example D9, (4-Bromo-2-{3-[1-(2,4-dichloro-phenyl)-cyclopropyl]-[1,2,4]oxadiazol-5-yl}-phenoxy)-acetic acid]	> 6.30	> 6.30
CS(=O)(=O)N1CCC(c2ccccc2)(c2noc(-c3cc(Br)ccc3OCC(=O)O)n2)CC1 [Example D10, {4-Bromo-2-[3-(1-methanesulfonyl-4-phenyl-piperidin-4-yl)-[1,2,4]oxadiazol-5-yl]-phenoxy}-acetic acid]	> 6.30	> 6.30
CN1CCC(c2ccccc2)(c2noc(-c3cc(Br)ccc3OCC(=O)O)n2)CC1 [Example D11, {4-Bromo-2-[3-(1-methyl-4-phenyl-piperidin-4-yl)-[1,2,4]oxadiazol-5-yl]-phenoxy}-acetic acid]	> 6.30	> 6.30
O=C(O)COc1ccc(Br)cc1-c1nc(C2(c3ccccc3)CCN(C(=O)C3CC3)CC2)no1 [Example D12, {4-Bromo-2-[3-(1-cyclopropanecarbonyl-4-phenyl-piperidin-4-yl)-[1,2,4]oxadiazol-5-yl]-phenoxy}-acetic acid]	> 6.30	> 6.30
O=C(O)COc1ccc(Br)cc1-c1nc(C2(c3c(Cl)cccc3Cl)CC2)no1 [Example D13, (4-Bromo-2-{3-[1-(2,6-dichloro-phenyl)-cyclopropyl]-[1,2,4]oxadiazol-5-yl}-phenoxy)-acetic acid]	> 6.30	> 6.30
O=C(O)COc1ccc(Br)cc1-c1nc(C2(c3ccccc3)CCC2)no1 [Example D14, {4-Bromo-2-[3-(1-phenyl-cyclobutyl)-[1,2,4]oxadiazol-5-yl]-phenoxy}-acetic acid]	> 6.30	> 6.30
O=C(O)COc1ccc(Br)cc1-c1nc(C2(c3ccccc3)CCN(S(=O)(=O)C3CC3)CC2)no1 [Example D15, {4-Bromo-2-[3-(1-cyclopropanesulfonyl-4-phenyl-piperidin-4-yl)-[1,2,4]oxadiazol-5-yl]-phenoxy}-acetic acid]	> 6.30	> 6.30
COC(=O)N1CCC(c2ccccc2)(c2noc(-c3cc(Br)ccc3OCC(=O)O)n2)CC1 [Example D16, 4-[5-(5-Bromo-2-carboxymethoxy-phenyl)-[1,2,4]oxadiazol-3-yl]-4-phenyl-piperidine-1-carboxylic acid methyl ester]	> 6.30	> 6.30
CC(=O)OCC(=O)N1CCC(c2ccccc2)(c2noc(-c3cc(Br)ccc3OCC(=O)O)n2)CC1 [Example D17, (2-{3-[1-(2-Acetoxy-acetyl)-4-phenyl-piperidin-4-yl]-[1,2,4]oxadiazol-5-yl}-4-bromo-phenoxy)-acetic acid]	> 6.30	> 6.30
O=C(O)COc1ccc(Br)cc1-c1nc(C2(c3ccccc3)CCN(C(=O)CO)CC2)no1 [Example D18, (4-Bromo-2-{3-[1-(2-hydroxy-acetyl)-4-phenyl-piperidin-4-yl]-[1,2,4]oxadiazol-5-yl}-phenoxy)-acetic acid]	> 6.30	> 6.30
CS(=O)(=O)N1CCC(c2ccc(F)cc2)(c2noc(-c3cc(Br)ccc3OCC(=O)O)n2)CC1 [Example D19, (4-Bromo-2-{3-[4-(4-fluoro-phenyl)-1-methanesulfonyl-piperidin-4-yl]-[1,2,4]oxadiazol-5-yl}-phenoxy)-acetic acid]	> 6.30	> 6.30
O=C(O)COc1ccc(Br)cc1-c1nc(C(c2ccc(F)cc2)N2CCS(=O)(=O)CC2)no1 (stereo not drawn) [Example D20, (4-Bromo-2-{3-[(1,1-dioxo-1lambda*6*-thiomorpholin-4-yl)-(4-fluoro-phenyl)-methyl]-[1,2,4]oxadiazol-5-yl}-phenoxy)-acetic acid]	> 6.30	> 6.30
C[C@H](Oc1ccc(Br)cc1-c1nc(C2(c3ccc(F)cc3)CC2)no1)C(=O)O [Example D21, (S)-2-(4-Bromo-2-{3-[1-(4-fluoro-phenyl)-cyclopropyl]-[1,2,4]oxadiazol-5-yl}-phenoxy)-propionic acid]	> 6.30	> 6.30
